In ChEMBL document CHEMBL1128114, “Enzymatic resolution and pharmacological activity of the enantiomers of 3,5-dihydroxyphenylglycine, a metabotropic glutamate receptor agonist” (Bioorg Med Chem Lett, 1995):

Target: Metabotropic glutamate receptor
Assay: Compound was tested for ability to stimulate metabotropic glutamate receptor (mGluR) mediated phosphoinositide hydrolysis in rat hippocampus
Type: functional, tissue-based

| EC50 | SMILES |
| --- | --- |
| 10.9 µM | N[C@H](C(=O)O)c1cc(O)cc(O)c1 |
| 106 µM | N[C@@H](C(=O)O)c1cc(O)cc(O)c1 |
